Source: patent US6355799B1, “Substituted benzene compounds, process for their preparation, and herbicidal and defoliant compositions containing them” (ISK Americas Incorporated, priority 1997, dated 2002)

Assays:
Assay type in all cases: in vivo
[1] = system: redroot pigweed (Amaranthus retroflexus, AMARE); test: Pre-emerge test, greenhouse herbicide activity screening; details: pre-emerge, phytotoxicity rating 0-100 at 14 days after application
In short: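 Sandy loam pots; pre-emerge: sown 1 d pre-spray, surface-watered after, then bottom-watered. Post-emerge: sown 8–21 d before, 2–3 leaf stage, + 0.25% v/v NIS, bottom-watered. Acetone, 187 l/ha track spray, 15–1000 g ai/ha. 0–100 injury score, day 14.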

[2] = system: barnyardgrass (Echinochloa crus-galli, ECHCG); test: as above; details: pre-emerge, phytotoxicity rating 0-100 at 14 days after application
In short: (§1)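 Compounds in acetone were track-sprayed at 15–1000 g ai/ha: pre-emergence onto soil sown the previous day, then top-watered to incorporate and later bottom-watered; post-emergence onto 2–3 leaf plants with 0.25% v/v surfactant, bottom-watered only. Ratings on a 0–100 phytotoxicity scale were taken at day 14.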

[3] = system: green foxtail (Setaria viridis, SETVI); test: as above; details: pre-emerge, phytotoxicity rating 0-100 at 14 days after application
In short: as §1

[4] = system: ivyleaf morningglory (Ipomoea hederacea, IPOHE); test: as above; details: pre-emerge, phytotoxicity rating 0-100 at 14 days after application
In short: as §1

[5] = system: johnsongrass (Sorghum halepense, SORHA); test: as above; details: pre-emerge, phytotoxicity rating 0-100 at 14 days after application
In short: as §1

[6] = system: lambsquarters (Chenopodium album, CHEAL); test: as above; details: pre-emerge, phytotoxicity rating 0-100 at 14 days after application
In short: as §1

[7] = system: large crabgrass (Digitaria sanguinalis, DIGSA); test: as above; details: pre-emerge, phytotoxicity rating 0-100 at 14 days after application
In short: as §1

[8] = system: sicklepod (Cassia obtusifolia, CASOB); test: as above; details: pre-emerge, phytotoxicity rating 0-100 at 14 days after application
In short: as §1

[9] = system: velvetleaf (Abutilon theophrasti, ABUTH); test: as above; details: pre-emerge, phytotoxicity rating 0-100 at 14 days after application
In short: as §1

[10] = system: field corn (Zea mays L., var. Dekalb 535, CORN); test: Pre-emerge test, crop safety; details: crop damage, pre-emerge, phytotoxicity rating 0-100 at 14 days after application
In short: (§2)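 Visual ratings on a 0-100 scale (0 no damage, 100 all plants dead) were taken at 14 days after treatment. Rates of 15-1000 g ai/ha in acetone, 187 l/ha, were sprayed onto soil one day after planting (pre-emerge) or onto 2-3 leaf plants with 0.25% v/v surfactant (post-emerge).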

[11] = system: upland rice (Oryza sp., var. Tebonnet, RICE); test: Pre-emerge test, crop safety; details: crop damage, pre-emerge, phytotoxicity rating 0-100 at 14 days after application
In short: as §2

[12] = system: barnyardgrass (Echinochloa crus-galli, ECHCG); test: Post-emerge test, greenhouse herbicide activity screening; details: post-emerge, phytotoxicity rating 0-100 at 14 days after application
In short: (§3)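 Herbicidal damage is scored 0 (none) to 100 (complete plant death) two weeks after a simulated field spray. Rates span 15–1000 g ai/ha, delivered in acetone at 187 l/ha. For post-emergence treatments, plants have 2–3 leaves and the spray carries 0.25% v/v non-ionic surfactant.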

[13] = system: green foxtail (Setaria viridis, SETVI); test: as above; details: post-emerge, phytotoxicity rating 0-100 at 14 days after application
In short: as §3

[14] = system: ivyleaf morningglory (Ipomoea hederacea, IPOHE); test: as above; details: post-emerge, phytotoxicity rating 0-100 at 14 days after application
In short: as §3

[15] = system: johnsongrass (Sorghum halepense, SORHA); test: as above; details: post-emerge, phytotoxicity rating 0-100 at 14 days after application
In short: as §3

[16] = system: lambsquarters (Chenopodium album, CHEAL); test: as above; details: post-emerge, phytotoxicity rating 0-100 at 14 days after application
In short: as §3

[17] = system: large crabgrass (Digitaria sanguinalis, DIGSA); test: as above; details: post-emerge, phytotoxicity rating 0-100 at 14 days after application
In short: as §3

[18] = system: redroot pigweed (Amaranthus retroflexus, AMARE); test: as above; details: post-emerge, phytotoxicity rating 0-100 at 14 days after application
In short: as §3

[19] = system: sicklepod (Cassia obtusifolia, CASOB); test: as above; details: post-emerge, phytotoxicity rating 0-100 at 14 days after application
In short: as §3

[20] = system: velvetleaf (Abutilon theophrasti, ABUTH); test: as above; details: post-emerge, phytotoxicity rating 0-100 at 14 days after application
In short: as §3

[21] = system: field corn (Zea mays L., var. Dekalb 535, CORN); test: Post-emerge test, crop safety; details: post-emerge, crop damage rating 0-100 at 14 days after application
In short: (§4)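 Rating: 0–100 visual injury, 14 DAA. Application: acetone, 187 l/ha, 15–1000 g ai/ha, flat-fan track sprayer with nozzle 40–45 cm above soil or canopy. Post-emerge runs used 0.25% v/v surfactant on 2–3 leaf plants.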

[22] = system: upland rice (Oryza sp., var. Tebonnet, RICE); test: Post-emerge test, crop safety; details: post-emerge, crop damage rating 0-100 at 14 days after application
In short: as §4

Cc1c(Cl)cc(F)c(-n2c(=O)cc(C(F)(F)F)n(C)c2=O)c1NC(=O)OCc1ccc(Cl)cc1 [4-61]
Pre-emerge Herbicidal Activity AMARE ([1]; rate 63 g ai/ha): 100
Pre-emerge Herbicidal Activity AMARE ([1]; rate 250 g ai/ha): 100
Pre-emerge Herbicidal Activity ECHCG ([2]; rate 63 g ai/ha): 30
Pre-emerge Herbicidal Activity ECHCG ([2]; rate 250 g ai/ha): 50
Pre-emerge Herbicidal Activity SETVI ([3]; rate 63 g ai/ha): 80
Pre-emerge Herbicidal Activity SETVI ([3]; rate 250 g ai/ha): 75
Pre-emerge Herbicidal Activity IPOHE ([4]; rate 63 g ai/ha): 30
Pre-emerge Herbicidal Activity IPOHE ([4]; rate 250 g ai/ha): 60
Pre-emerge Herbicidal Activity SORHA ([5]; rate 63 g ai/ha): 20
Pre-emerge Herbicidal Activity SORHA ([5]; rate 250 g ai/ha): 50
Pre-emerge Herbicidal Activity CHEAL ([6]; rate 63 g ai/ha): 100
Pre-emerge Herbicidal Activity CHEAL ([6]; rate 250 g ai/ha): 100
Pre-emerge Herbicidal Activity DIGSA ([7]; rate 63 g ai/ha): 50
Pre-emerge Herbicidal Activity DIGSA ([7]; rate 250 g ai/ha): 90
Pre-emerge Herbicidal Activity CASOB ([8]; rate 63 g ai/ha): 40
Pre-emerge Herbicidal Activity CASOB ([8]; rate 250 g ai/ha): 30
Pre-emerge Herbicidal Activity ABUTH ([9]; rate 63 g ai/ha): 60
Pre-emerge Herbicidal Activity ABUTH ([9]; rate 250 g ai/ha): 70
Pre-emerge Herbicidal Activity CORN ([10]; rate 63 g ai/ha): 0
Pre-emerge Herbicidal Activity CORN ([10]; rate 250 g ai/ha): 0
Pre-emerge Herbicidal Activity RICE ([11]; rate 63 g ai/ha): 0
Pre-emerge Herbicidal Activity RICE ([11]; rate 250 g ai/ha): 50
Post-emerge Herbicidal Activity ECHCG ([12]; 63 g ai/ha): 40
Post-emerge Herbicidal Activity ECHCG ([12]; 250 g ai/ha): 60
Post-emerge Herbicidal Activity SETVI ([13]; 63 g ai/ha): 70
Post-emerge Herbicidal Activity SETVI ([13]; 250 g ai/ha): 80
Post-emerge Herbicidal Activity IPOHE ([14]; 63 g ai/ha): 100
Post-emerge Herbicidal Activity IPOHE ([14]; 250 g ai/ha): 100
Post-emerge Herbicidal Activity SORHA ([15]; 63 g ai/ha): 50
Post-emerge Herbicidal Activity SORHA ([15]; 250 g ai/ha): 70
Post-emerge Herbicidal Activity CHEAL ([16]; 63 g ai/ha): 100
Post-emerge Herbicidal Activity CHEAL ([16]; 250 g ai/ha): 100
Post-emerge Herbicidal Activity DIGSA ([17]; 63 g ai/ha): 50
Post-emerge Herbicidal Activity DIGSA ([17]; 250 g ai/ha): 70
Post-emerge Herbicidal Activity AMARE ([18]; 63 g ai/ha): 100
Post-emerge Herbicidal Activity AMARE ([18]; 250 g ai/ha): 100
Post-emerge Herbicidal Activity CASOB ([19]; 63 g ai/ha): 100
Post-emerge Herbicidal Activity CASOB ([19]; 250 g ai/ha): 100
Post-emerge Herbicidal Activity ABUTH ([20]; 63 g ai/ha): 100
Post-emerge Herbicidal Activity ABUTH ([20]; 250 g ai/ha): 100
Post-emerge Herbicidal Activity CORN ([21]; 63 g ai/ha): 50
Post-emerge Herbicidal Activity CORN ([21]; 250 g ai/ha): 70
Post-emerge Herbicidal Activity RICE ([22]; 63 g ai/ha): 40
Post-emerge Herbicidal Activity RICE ([22]; 250 g ai/ha): 80
